# Results reported in article PMC5740082, “Identification of a CARM1 Inhibitor with Potent In Vitro and In Vivo Activity in Preclinical Models of Multiple Myeloma” (Scientific Reports, 2017).
# Where two headings read alike, the source gives them in different places.
# Legend:
# [1] = Pharmacokinetic study in mouse
# Protocol: An additional group of rats, cannulated in both the jugular and portal veins were dosed by oral gavage (10 mg/kg, in 0.5% methylcellulose in water). Approximately 110 μL of blood was taken from the animals by retro-orbital bleeding (mouse), tail vein (rat i.v.) or both jugular and portal vein sampling (rat p.o.) at pre-specified time intervals. The 2 h samples were split for parallel determination of blood and plasma concentration (ex vivo ratio). Blood samples were collected into K2-EDTA tubes and centrifuged to obtain plasma.
# UCSD-AML1 = assay: Six-day cell proliferation assay (CellTiter-Glo); type: cell-based; details: 144 h; UCSD-AML1 (AML), 6 days; read-out: Average day 6 gIC50
# Protocol: (§1) Six-day cell proliferation assay
# (§2) Optimal cell seeding density was determined empirically for each cell lines by examining the gro wth of a wide ran ge o f seedin g densities in a 3 84-well formatto identify conditio ns that permitted maximal and continued proliferation for 6 days. Cells were plat ed in duplicate plates 24 hours before treatment with a 20- point two-fold dilution series of compound or 0.15%
# (§3) DMSO. Plates were incubated for 6 da ys at 37°C in 5% CO2. Cells were th en l ysed with CellTiter-Glo (CTG) (Pr omega) and chemiluminescent sign al was detected with an appropriat e microplate reader. In addition, an untreated plate of cells was harvested at the time of compound addition (T0) to quantif y the initial cell densit y. CTG values obtained after 6 days of treatment were expressed as a percent of the T0 value and plotted against compound concentration. […]
# (§4) Supplementary Table S 3. […] A p anel […]
# (§5) of cell lines was treated with EZM2302fo r 6da ys in a proliferation ass a y. Cell densit y (as assessed b y CellTiter-Gl o) at da y 0 was compared to day 6 to det ermine growth IC 50 values , calculated us i n g a f our parameter dose response equation.
# (§6) Cell Type According to Cell Type Category Cell L ine Name gIC50 Average day 6 Standard Replicates
# OPM-2 = assay: Six-day cell proliferation assay (CellTiter-Glo); type: cell-based; details: Homo sapiens, 144 h; OPM-2 (MM), 6 days; read-out: Average day 6 gIC50
# Protocol: as §1, §2, §3, §4, §5, §6
# SK-MM-2 = assay: Six-day cell proliferation assay (CellTiter-Glo); type: cell-based; details: Homo sapiens, 144 h; SK-MM-2 (Plasma cell leukemia), 6 days; read-out: Average day 6 gIC50
# Protocol: as §1, §2, §3, §4, §5, §6
# SH-2 = assay: Six-day cell proliferation assay (CellTiter-Glo); type: cell-based; details: 144 h; SH-2 (AML), 6 days; read-out: Average day 6 gIC50
# Protocol: as §1, §2, §3, §4, §5, §6
# NOMO-1 = assay: Six-day cell proliferation assay (CellTiter-Glo); type: cell-based; details: Homo sapiens, 144 h; NOMO-1 (AML), 6 days; read-out: Average day 6 gIC50
# Protocol: as §1, §2, §3, §4, §5, §6
# UT-7 = assay: Six-day cell proliferation assay (CellTiter-Glo); type: cell-based; details: Homo sapiens, UT7, 144 h; UT-7 (AML), 6 days; read-out: Average day 6 gIC50
# Protocol: as §1, §2, §3, §4, §5, §6
# RPMI-8226 = assay: Six-day cell proliferation assay (CellTiter-Glo); type: cell-based; details: Homo sapiens, 144 h; RPMI-8226 (MM), 6 days; read-out: Average day 6 gIC50
# Protocol: as §1, §2, §3, §4, §5, §6
# U266 B1 = assay: Six-day cell proliferation assay (CellTiter-Glo); type: cell-based; details: Homo sapiens, U-266, 144 h; U266 B1 (MM), 6 days; read-out: Average day 6 gIC50
# Protocol: as §1, §2, §3, §4, §5, §6
# SHI-1 = assay: Six-day cell proliferation assay (CellTiter-Glo); type: cell-based; details: 144 h; SHI-1 (AML), 6 days; read-out: Average day 6 gIC50
# Protocol: as §1, §2, §3, §4, §5, §6
# TF-1 = assay: Six-day cell proliferation assay (CellTiter-Glo); type: cell-based; details: Homo sapiens, 144 h; TF-1 (AML M6; Erythroleukemia), 6 days; read-out: Average day 6 gIC50
# Protocol: as §1, §2, §3, §4, §5, §6
# RPMI-8226 xenograft = assay: RPMI-8226 multiple myeloma xenograft study; type: in vivo, CB-17 SCID mice
# Protocol: For the in vivo efficacy studies, there were 8 mice per dose group and each mouse was inoculated subcutaneously at the right flank. All cells were suspended in a 0.2 mL mixture of base media and Matrigel at 1:1 for tumor development. RPMI-8226 cells were inoculated at 5 × 10^6 cells/mouse and treatment began when the mean tumor sizes reached 120 mm^3 (28 days post-inoculation). CB-17 SCID Mice were assigned into groups using a randomized block design. […] Body weights were measured twice a week for the duration of the study. Tumor size was measured twice weekly in two dimensions using a caliper, and the volume was expressed in cubic millimeters. Animals were euthanized 3 hours post-final dose, with blood and tissues collected for analysis.
# [2] = system: PABP1 and SmB methylation in U266B1 cells; assay: Western blot of cellular methyl marks, U266B1; details: 96 h
# Protocol: Methylation changes were measured at the well-characterized CARM1 substrates PABP1 and SmB[1],[10]. Changes in overall levels of asymmetric dimethyl arginine (aDMA) were assessed with an antibody that detects a generic aDMA motif. Levels of methylated analytes were quantified by densitometry and ratios of methylated to total protein were calculated to determine the cell biochemical IC50 values.
# Cultured cells in linear/log phase growth were split to a seeding density of 2e5 cells/mL in 2–20mLs of media, depending on the yield required at the end of the growth period. Compound was diluted in DMSO and added to each culture vessel with a final DMSO concentration of 0.2%. Cells were allowed to grow for 96 hours. At the conclusion of each treatment period, cells were harvested by centrifugation (5 minutes, 1200 rpm), and cell pellets were rinsed once with PBS before being frozen on dry ice pending further processing.
# Quantification of Western blots was performed using infra-red emitting secondary antibodies and detection with an ODYSSEY infrared imaging system.
# [3] = target: T1, rat recombinant kappa-opioid (KOP) receptor (Rattus norvegicus, UniProt P34975); assay: kappa-opioid (KOP) receptor binding assay
# T1 construct: purchased CEREP, Redmond, WA (ExpresSProfile screen)
# T1 sequence (P34975 whole entry): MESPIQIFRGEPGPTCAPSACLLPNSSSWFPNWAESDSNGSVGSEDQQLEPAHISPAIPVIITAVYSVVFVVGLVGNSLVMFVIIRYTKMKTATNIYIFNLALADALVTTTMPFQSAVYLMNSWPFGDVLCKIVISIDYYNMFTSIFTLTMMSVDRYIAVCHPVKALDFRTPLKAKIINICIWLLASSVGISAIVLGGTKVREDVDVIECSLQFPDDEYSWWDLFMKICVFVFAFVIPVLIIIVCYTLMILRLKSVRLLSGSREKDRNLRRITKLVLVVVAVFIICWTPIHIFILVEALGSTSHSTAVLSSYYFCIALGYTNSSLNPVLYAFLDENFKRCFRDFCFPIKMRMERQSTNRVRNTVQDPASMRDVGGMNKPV
# Text: […]. […] […]. […] […].
# LNCAP = assay: Long term proliferation assay (15 days); type: cell-based; details: Homo sapiens, 360 h, read-out: EZM2302 IC50 (absolute, long term proliferation), PROSTATE, day 15
# Protocol: (§7) Long term (14–15 day) cell proliferation assays were performed using the method previously described with adjustments to initial seeding densities depending on growth characteristics for each cell line[54],[55]. For 6 day proliferation studies, see Supplementary Methods.
# (§8) Supplementary Table S2. Long term proliferation IC50 values of cell lines dosed with EZM2302. A panel of cell lines was treated with EZM2302fo r 15 da ys in a long term proliferation assa y. Abs olute IC 50 values were calculated in GraphPad Pri sm (non -linear regression anal ysis, top of the curves were fixed to 100%) for each line at d ay 15 .
# PC3 = assay: Long term proliferation assay (15 days); type: cell-based; details: Homo sapiens, PC-3, 360 h, read-out: EZM2302 IC50 (absolute, long term proliferation); PC3, PROSTATE, day 15
# Protocol: as §7, §8
# VCAP = assay: Long term proliferation assay (15 days); type: cell-based; details: Homo sapiens, 360 h, read-out: EZM2302 IC50 (absolute, long term proliferation), PROSTATE, day 15
# Protocol: as §7, §8
# HT29 = assay: Long term proliferation assay (15 days); type: cell-based; details: Homo sapiens, HT-29, 360 h, read-out: EZM2302 IC50 (absolute, long term proliferation); HT29, LARGE, day 15
# Protocol: as §7, §8
# [4] = male, CD-1, mouse, plasma, iv, 2 mg/kg
# [5] = male, CD-1, mouse, plasma, po, 10 mg/kg
structure (smiles),measurement,setting,value
CNC[C@@H](O)COc1ccc(Cl)c(-c2nc(-c3c(C)noc3C)c(C)c(N3CC4(CCN(C(=O)OC)CC4)C3)n2)c1 [EZM2302],CL (plasma clearance),"[1]; CD-1 mouse, IV Bolus 2 mg/kg, 2 mg/kg",43.2 mL/min/kg
same,AUC(0-inf),[1]; [4],772 ng·h/mL
same,AUC(0-t),[1]; [4],767 ng·h/mL
same,Vd,[1]; [4],6.53 L/kg
same,half-life,[1]; [4],4.22 h
same,clearance,"[1]; male, CD-1, mouse, plasma, iv, 2 mg/kg, CL (plasma clearance), IV Bolus 2 mg/kg",43 mL/min/kg
same,AUC(0-inf),[1]; [5],577 ng·h/mL
same,AUC(0-t),[1]; [5],568 ng·h/mL
same,Cmax,[1]; [5],177 ng/mL
same,Tmax,[1]; [5],2 h
same,bioavailability,[1]; [5],15%
same,half-life,[1]; [5],4.55 h
same,IC50,UCSD-AML1,> 36.7 µM
same,IC50,OPM-2,4.95 µM
same,IC50,SK-MM-2,20.4 µM
same,IC50,SH-2,> 36.7 µM
same,IC50,NOMO-1,> 36.5 µM
same,IC50,UT-7,> 27.6 µM
same,IC50,RPMI-8226,> 26.1 µM
same,IC50,U266 B1,22.1 µM
same,IC50,SHI-1,> 36 µM
same,IC50,TF-1,25.9 µM
same,Tumor growth inhibition (TGI),"RPMI-8226 xenograft; 37.5 mg/kg BID oral, 21 days",45%
same,increase in unmethylated SmB (SmBme0) in tumor,"RPMI-8226 xenograft; 37.5 mg/kg BID oral, day 21",8 fold
same,maximal inhibition of aDMA levels in tumor,"RPMI-8226 xenograft; 75 mg/kg BID oral, day 21",65%
same,Methylated PABP1 in tumor,"RPMI-8226 xenograft; 75 mg/kg and higher dose groups, day 21",undetectable in most animals
same,increase in unmethylated SmB (SmBme0) in tumor,"RPMI-8226 xenograft; 150 mg/kg BID oral, day 21",14 fold
same,tolerability,"RPMI-8226 xenograft; 150 mg/kg and below BID oral, 21 days",well tolerated
same,Tumor growth inhibition (TGI),"RPMI-8226 xenograft; 300 mg/kg BID oral, 21 days",63%
same,body weight,"RPMI-8226 xenograft; 300 mg/kg BID oral, 21 days",some body weight loss
same,weight loss leading to dosing holidays,"RPMI-8226 xenograft; 6 of 8 animals in the 300 mg/kg group, holidays of 2 to 8 days",greater than 8%
same,day of maximal changes in methylation in tumor tissue,"RPMI-8226 xenograft; 150 and 300 mg/kg BID, sampled after 2, 4 and 8 days",4 days
same,IC50,"[2]; read-out: IC50, PABP1me2a",0.022 µM
same,IC50,"[2]; read-out: IC50, SmBme0",0.02 µM
same,IC50,[3],3.3 µM
same,inhibition at 10 µM,[3]; 10 μM,69%
same,IC50,LNCAP,12.2 µM
same,IC50,PC3,> 20 µM
same,IC50,VCAP,> 20 µM
same,IC50,HT29,> 20 µM
